Results taken from the supplement of paper PMC11061612.

Experiments:
Test in all cases: Bliss excess, mean over the matrix (fraction); higher = more synergy
[1] = test system: CTV-1 (T-Lymphoblastic Leukemia)
Procedure, shortened: (§1)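 Cell lines grown in DMEM/F12 or RPMI with 10% FBS were plated in 1536-well plates and held 24 hours at 37°C, 5% CO2 before 72 hours of exposure to two-drug dose matrices, with DMSO typically at 0.2%. CellTiter-Glo 2.0 luminescence gave viability, which was converted to inhibition. Vehicle wells were set to 0 and blank wells to 1. Combination Emax is the second-highest inhibition in the matrix, and Bliss excess is the observed combination effect minus the expected EA + EB − EA·EB, where EA and EB are the single-agent effects.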

SN12C (Kidney Carcinoma) = test system: SN12C (Kidney Carcinoma)
Procedure, shortened: as §1

SK-N-FI (Neuroblastoma) = test system: SK-N-FI (Neuroblastoma)
Procedure, shortened: as §1

[2] = test system: LU-99A (Non-Small Cell Lung Carcinoma)
Procedure, shortened: as §1

[3] = test system: SUIT-2 (Pancreatic Carcinoma)
Procedure, shortened: as §1

[4] = test system: EM-2 (Chronic Myelogenous Leukemia)
Procedure, shortened: as §1

DSH1 (Bladder Carcinoma) = test system: DSH1 (Bladder Carcinoma)
Procedure, shortened: as §1

[5] = test system: SNU-C5 (Colorectal Carcinoma)
Procedure, shortened: as §1

[6] = test system: HCC2157 (Breast Carcinoma)
Procedure, shortened: as §1

[7] = test system: SW1088 (Low Grade Glioma)
Procedure, shortened: as §1

[8] = test system: U-266 (Plasma Cell Myeloma)
Procedure, shortened: as §1

[9] = test system: HPAC (Pancreatic Carcinoma)
Procedure, shortened: as §1

[10] = test system: SW780 (Bladder Carcinoma)
Procedure, shortened: as §1

[11] = test system: TE-5 (Esophageal Squamous Cell Carcinoma)
Procedure, shortened: as §1

[12] = test system: DMS-273 (Small Cell Lung Carcinoma)
Procedure, shortened: as §1

[13] = test system: COR-L23 (Non-Small Cell Lung Carcinoma)
Procedure, shortened: as §1

[14] = test system: NALM-6 (B-Lymphoblastic Leukemia)
Procedure, shortened: as §1

[15] = test system: HT-29 (Colorectal Carcinoma)
Procedure, shortened: as §1

[16] = test system: DOV13 (Ovarian Carcinoma)
Procedure, shortened: as §1

[17] = test system: DB (B-Cell Non-Hodgkin's Lymphoma)
Procedure, shortened: as §1

| Compound | Bliss excess [1] | Bliss excess (SN12C (Kidney Carcinoma)) | Bliss excess (SK-N-FI (Neuroblastoma)) | Bliss excess [2] | Bliss excess [3] | Bliss excess [4] | Bliss excess (DSH1 (Bladder Carcinoma)) | Bliss excess [5] | Bliss excess [6] | Bliss excess [7] | Bliss excess [8] | Bliss excess [9] | Bliss excess [10] | Bliss excess [11] | Bliss excess [12] | Bliss excess [13] | Bliss excess [14] | Bliss excess [15] | Bliss excess [16] | Bliss excess [17] |
| --- | --- | --- | --- | --- | --- | --- | --- | --- | --- | --- | --- | --- | --- | --- | --- | --- | --- | --- | --- | --- |
| CN(C)CCCOc1ccc(-c2ccc3ncc4c(c3c2)n(C2CCOCC2)c(=O)n4C)cn1 [AZD0156] + CCN(CCO)CCCOc1ccc2c(Nc3cc(CC(=O)Nc4cccc(F)c4)[nH]n3)ncnc2c1 [AZD2811] (first compound max 1 µM, 7x7, partner max 1 µM) | 0.0458 | -0.0563 | -0.0144 | -0.0341 | -0.0029 | -0.0445 | 0.0062 | 0.0043 | 0.112 | -0.0291 | 0.0028 | 0.012 | -0.0268 | -0.0536 | 0.0307 | -0.0073 | -0.0755 | -0.0109 | 0.0385 | -0.0221 |
| Cc1cc2ncnn2cc1Nc1ncc2c(n1)n(C1CCOCC1)c(=O)n2C [AZD7648] + C[C@@H]1COCCN1C2=NC(=NC(=C2)C3(CC3)[S@](=N)(=O)C)C4=C5C=CNC5=NC=C4 [AZD6738] (first compound max 10 µM, 7x7, partner max 10 µM) | -0.0024 | 0.0264 | -0.005 | 0.0077 | -0.0306 | -0.0013 | -0.0234 | 0.0455 | -0.0528 | 0.0289 | -0.0168 | 0.0187 | 0.0476 | -0.0093 | 0.0094 | -0.0121 | -0.0561 | 0.0118 | -0.0039 | -0.0509 |
| Cc1c2c(nn1C)CSCc1cc(n(C)n1)CSc1cc(c3ccccc3c1)OCCCc1c(C(=O)O)n(C)c3c-2c(Cl)ccc13 [AZD5991] + CN(C)CCCOc1ccc(-c2ccc3ncc4c(c3c2)n(C2CCOCC2)c(=O)n4C)cn1 [AZD0156] (first compound max 1 µM, 7x7, partner max 1 µM) | 0.0012 | -0.0161 | -0.0036 | -0.0175 | 0.0035 | -0.0436 | -0.013 | 0.0157 | -0.012 | -0.0356 | 0.0057 | 0.0384 | -0.0103 | -0.0081 | 0.0401 | -0.0086 | 0.0032 | 0.0078 | -0.0235 | -0.0093 |
| C[C@@H]1COCCN1c1cc(C2([S@](C)(=N)=O)CC2)nc(-c2ccnc3[nH]ccc23)n1 [AZD6738] + O=C(c1cc(Cc2n[nH]c(=O)c3ccccc23)ccc1F)N1CCN(C(=O)C2CC2)CC1 [Olaparib] (first compound max 10 µM, 7x7, partner max 10 µM) | 0.043 | -0.0284 | -0.0581 | -0.0289 | -0.0264 | 0.0026 | -0.0205 | -0.0258 | 0.0441 | 0.0087 | 0.0151 | 0.0125 | -0.0047 | -0.021 | -0.0473 | -0.034 | 0.0015 | -0.0014 | 0.0127 | -0.0359 |
| CCc1c2c(nc3ccc(O)cc13)-c1cc3c(c(=O)n1C2)COC(=O)[C@]3(O)CC [SN-38] + CN(C)CCCOc1ccc(-c2ccc3ncc4c(c3c2)n(C2CCOCC2)c(=O)n4C)cn1 [AZD0156] (first compound max 0.3 µM, 7x7, partner max 1 µM) | 0.0414 | 0.011 | 0.0628 | 0.0406 | 0.0446 | 0.0812 | -0.0382 | 0.036 | 0.142 | 0.0324 | -0.0099 | 0.0584 | -0.0475 | 0.0124 | 0.0377 | 0.014 | 0.0336 | 0.0693 | -0.0192 | -0.0305 |
| CN(CCO)CC[C@H](CSc1ccccc1)Nc1ccc(S(=O)(=O)NC(=O)c2ccc(N3CCC([C@@H](O)c4ccccc4-c4ccc(Cl)cc4)CC3)cc2)cc1S(=O)(=O)C(F)(F)F [AZD4320] + CN(C)CCCOc1ccc(-c2ccc3ncc4c(c3c2)n(C2CCOCC2)c(=O)n4C)cn1 [AZD0156] (first compound max 1 µM, 7x7, partner max 1 µM) | -0.0055 | -0.0633 | -0.0252 | -0.006 | -0.0407 | -0.0192 | 0.0303 | 0.0125 | 0.009 | -0.033 | 0.0462 | -0.0709 | -0.0392 | -0.0135 | -0.0199 | -0.0231 | 0.0217 | -0.0238 | -0.0021 | 0.0373 |
| COc1nnc2ccc(N3CCC(c4ccc(OCCN5CCN(C)C(=O)[C@H]5C)cc4)CC3)nn12 [AZD5153] + C[C@@H]1COCCN1C2=NC(=NC(=C2)C3(CC3)[S@](=N)(=O)C)C4=C5C=CNC5=NC=C4 [AZD6738] (first compound max 1 µM, 7x7, partner max 10 µM) | 0.0194 | -0.0091 | 0.0549 | -0.0213 | 0.0468 | 0.039 | 0.0321 | 0.0359 | -0.0086 | 0.0059 | -0.079 | 0.0368 | -0.0052 | -0.0316 | 0.0044 | -0.0016 | -0.0624 | -0.0307 | -0.0623 | 0.0071 |
| C=CCn1c(=O)c2cnc(Nc3ccc(N4CCN(C)CC4)cc3)nc2n1-c1cccc(C(C)(C)O)n1 [AZD1775] + O=C(c1cc(Cc2n[nH]c(=O)c3ccccc23)ccc1F)N1CCN(C(=O)C2CC2)CC1 [Olaparib] (first compound max 1 µM, partner max 10 µM) | -0.0239 | -0.0136 | -0.0569 | -0.0603 | -0.0049 | -0.0243 | -0.0534 | -0.0485 | -0.0187 | 0.0045 | -0.0775 | 0.0077 | -0.0262 | -0.0488 | -0.0334 | -0.0182 | -0.0045 | -0.0368 | -0.0389 | -0.0788 |
| CC1(C)CCC(CN2CCN(c3ccc(C(=O)NS(=O)(=O)c4ccc(NCC5CCOCC5)c([N+](=O)[O-])c4)c(Oc4cnc5[nH]ccc5c4)c3)CC2)=C(c2ccc(Cl)cc2)C1 [Venetoclax] + CCN(CCO)CCCOc1ccc2c(Nc3cc(CC(=O)Nc4cccc(F)c4)[nH]n3)ncnc2c1 [AZD2811] (first compound max 1 µM, 7x7, partner max 1 µM) | -0.0281 | -0.0267 | -0.0456 | -0.0012 | -0.0135 | -0.0721 | -0.0142 | 0.0063 | -0.0305 | -0.0469 | -0.0216 | -0.0275 | -0.007 | -0.0318 | 0.0016 | -0.0428 | 0.0968 | 0.0012 | 0.0465 | 0.0416 |
| CC(=O)c1c(C)c2cnc(Nc3ccc(N4CCNCC4)cn3)nc2n(C2CCCC2)c1=O [Palbociclib] + CN(CC[C@H](CSC1=CC=CC=C1)NC2=C(C=C(C=C2)S(=O)(=O)NC(=O)C3=CC=C(C=C3)N4CCC(CC4)[C@H](C5=CC=CC=C5C6=CC=C(C=C6)Cl)O)S(=O)(=O)C(F)(F)F)CCO [AZD4320] (first compound max 10 µM, 7x7, partner max 1 µM) | -0.0365 |  |  | -0.119 | -0.0937 | -0.0899 |  | 0.025 | 0.0149 |  |  | -0.0765 | -0.136 |  | -0.106 | -0.0608 |  | -0.0271 |  |  |
| C[C@@H](c1ccc2nccn2c1)n1nnc2ncc(-c3cnn(C)c3)nc21 [Savolitinib] + CN(CC[C@H](CSC1=CC=CC=C1)NC2=C(C=C(C=C2)S(=O)(=O)NC(=O)C3=CC=C(C=C3)N4CCC(CC4)[C@H](C5=CC=CC=C5C6=CC=C(C=C6)Cl)O)S(=O)(=O)C(F)(F)F)CCO [AZD4320] (first compound max 1 µM, 7x7, partner max 1 µM) | -0.0887 |  |  | -0.0558 | 0.0046 | -0.0531 |  | -0.0448 | -0.0331 |  |  | -0.0347 | -0.0468 |  | -0.0126 | -0.0349 |  | -0.0245 |  |  |
| CCc1c2c(nc3ccc(O)cc13)-c1cc3c(c(=O)n1C2)COC(=O)[C@]3(O)CC [SN-38] + O=C(c1cc(Cc2n[nH]c(=O)c3ccccc23)ccc1F)N1CCN(C(=O)C2CC2)CC1 [Olaparib] (first compound max 0.3 µM, 7x7, partner max 10 µM) | 0.0665 | 0.0457 | 0.0478 | 0.0452 | -0.0211 | 0.0606 | 0.0007 |  |  | 0.0683 | 0.0526 | -0.0031 |  | 0.0521 | 0.0129 | 0.0328 | 0.0775 | 0.0396 | 0.0456 | 0.0534 |
| COc1nnc2ccc(N3CCC(c4ccc(OCCN5CCN(C)C(=O)[C@H]5C)cc4)CC3)nn12 [AZD5153] + CN(CC[C@H](CSC1=CC=CC=C1)NC2=C(C=C(C=C2)S(=O)(=O)NC(=O)C3=CC=C(C=C3)N4CCC(CC4)[C@H](C5=CC=CC=C5C6=CC=C(C=C6)Cl)O)S(=O)(=O)C(F)(F)F)CCO [AZD4320] (first compound max 1 µM, 7x7, partner max 1 µM) | 0.0057 |  |  | 0.128 | 0.005 | -0.0442 |  | 0.0451 | 0.0047 |  |  | 0.0229 | -0.0091 |  | 0.0043 | -0.0014 |  | -0.0111 |  |  |
| Cc1c2c(nn1C)CSCc1cc(n(C)n1)CSc1cc(c3ccccc3c1)OCCCc1c(C(=O)O)n(C)c3c-2c(Cl)ccc13 [AZD5991] + Cc1cc2ncnn2cc1Nc1ncc2c(n1)n(C1CCOCC1)c(=O)n2C [AZD7648] (first compound max 1 µM, 7x7, partner max 10 µM) | -0.0169 | -0.0335 | -0.0289 | -0.0397 |  | 0.0206 | -0.095 | -0.0085 | 0.0283 | -0.0665 | 0.0078 | -0.0679 | -0.0193 | -0.0257 | -0.0113 | -0.0076 | -0.0303 | 0.0049 | -0.0025 | -0.0087 |
| COc1cc2ncnc(Nc3ccc(F)c(Cl)c3)c2cc1OCCCN1CCOCC1 [Gefitinib] + CC(C)n1c(=O)n(C)c2cnc3cc(F)c(-c4ccc(OCCCN5CCCCC5)nc4)cc3c21 [AZD1390] (first compound max 10 µM, 7x7, partner max 0.3 µM) | -0.0468 | -0.0255 | -0.0391 |  | -0.0527 | -0.0507 | -0.0351 | -0.0751 | -0.0136 | -0.0688 | -0.0442 | -0.0607 | -0.0642 | -0.045 | -0.0068 | -0.069 | -0.0643 | -0.0512 | -0.1 | 0.0332 |
